Results: ChEMBL document CHEMBL1201862, “PubChem BioAssay data set” (2004)
Activity calls are given as the source filed them.

How the values were obtained:
[1] = target: T1, Sentrin-specific protease 8 (Homo sapiens, UniProt Q96LD8); format: functional;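 further: luminescence read-out of SENP8 inhibition, dose-response confirmation following an ultra-high-throughput screen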
T1 sequence (Q96LD8 whole entry): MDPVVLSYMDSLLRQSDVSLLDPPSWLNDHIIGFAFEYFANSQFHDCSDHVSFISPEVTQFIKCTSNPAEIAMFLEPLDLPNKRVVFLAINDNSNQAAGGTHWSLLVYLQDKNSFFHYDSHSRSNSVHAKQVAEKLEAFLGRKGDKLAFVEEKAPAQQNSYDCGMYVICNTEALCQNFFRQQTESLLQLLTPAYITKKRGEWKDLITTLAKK

HeLa = assay: ATP-based viability loss in HeLa cells – cell-based, CellTiter-Glo luminescence, cherry-pick samples, cytotoxicity control for MITF activator project, dose response (AID 540259); format: functional; settings: Homo sapiens
[2] = target: T2, Sentrin-specific protease 7 (Homo sapiens, UniProt Q9BQF6); format: functional;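 further: Luminescence-based dose-response confirmation of ultra-high-throughput screening hits, measuring inhibition of SENP7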
T2 sequence (Q9BQF6 whole entry): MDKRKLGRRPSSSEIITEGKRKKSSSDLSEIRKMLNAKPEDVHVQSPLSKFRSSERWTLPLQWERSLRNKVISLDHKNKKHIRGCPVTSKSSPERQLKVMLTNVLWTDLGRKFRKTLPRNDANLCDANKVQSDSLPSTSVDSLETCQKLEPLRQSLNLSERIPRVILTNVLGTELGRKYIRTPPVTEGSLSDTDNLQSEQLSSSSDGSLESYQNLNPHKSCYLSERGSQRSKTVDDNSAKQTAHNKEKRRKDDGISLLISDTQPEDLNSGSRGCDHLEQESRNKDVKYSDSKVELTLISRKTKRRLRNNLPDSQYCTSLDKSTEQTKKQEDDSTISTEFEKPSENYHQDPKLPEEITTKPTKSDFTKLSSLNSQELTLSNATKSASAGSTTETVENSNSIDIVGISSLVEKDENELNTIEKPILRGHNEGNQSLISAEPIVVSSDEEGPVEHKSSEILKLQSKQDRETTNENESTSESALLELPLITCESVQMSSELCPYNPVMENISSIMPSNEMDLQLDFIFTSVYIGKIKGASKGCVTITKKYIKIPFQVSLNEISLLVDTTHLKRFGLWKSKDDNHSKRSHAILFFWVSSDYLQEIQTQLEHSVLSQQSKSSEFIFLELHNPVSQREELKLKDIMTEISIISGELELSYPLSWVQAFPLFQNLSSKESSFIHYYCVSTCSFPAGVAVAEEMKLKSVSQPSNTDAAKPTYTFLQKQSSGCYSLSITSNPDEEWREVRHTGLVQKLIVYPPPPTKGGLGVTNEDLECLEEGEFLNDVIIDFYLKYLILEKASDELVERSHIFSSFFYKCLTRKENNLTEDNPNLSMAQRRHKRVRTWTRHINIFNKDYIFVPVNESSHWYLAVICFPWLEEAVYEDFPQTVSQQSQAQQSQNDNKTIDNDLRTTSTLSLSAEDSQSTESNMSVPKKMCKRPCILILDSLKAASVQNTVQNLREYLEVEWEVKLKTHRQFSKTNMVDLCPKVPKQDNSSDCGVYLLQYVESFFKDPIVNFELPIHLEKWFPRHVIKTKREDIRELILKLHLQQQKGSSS

[3] = target: T3, Sentrin-specific protease 6 (Homo sapiens, UniProt Q9GZR1); format: functional;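 further: Luminescence-based dose-response confirmatory assay of SENP6 inhibition, following up an ultra-high-throughput screen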
T3 sequence (Q9GZR1 whole entry): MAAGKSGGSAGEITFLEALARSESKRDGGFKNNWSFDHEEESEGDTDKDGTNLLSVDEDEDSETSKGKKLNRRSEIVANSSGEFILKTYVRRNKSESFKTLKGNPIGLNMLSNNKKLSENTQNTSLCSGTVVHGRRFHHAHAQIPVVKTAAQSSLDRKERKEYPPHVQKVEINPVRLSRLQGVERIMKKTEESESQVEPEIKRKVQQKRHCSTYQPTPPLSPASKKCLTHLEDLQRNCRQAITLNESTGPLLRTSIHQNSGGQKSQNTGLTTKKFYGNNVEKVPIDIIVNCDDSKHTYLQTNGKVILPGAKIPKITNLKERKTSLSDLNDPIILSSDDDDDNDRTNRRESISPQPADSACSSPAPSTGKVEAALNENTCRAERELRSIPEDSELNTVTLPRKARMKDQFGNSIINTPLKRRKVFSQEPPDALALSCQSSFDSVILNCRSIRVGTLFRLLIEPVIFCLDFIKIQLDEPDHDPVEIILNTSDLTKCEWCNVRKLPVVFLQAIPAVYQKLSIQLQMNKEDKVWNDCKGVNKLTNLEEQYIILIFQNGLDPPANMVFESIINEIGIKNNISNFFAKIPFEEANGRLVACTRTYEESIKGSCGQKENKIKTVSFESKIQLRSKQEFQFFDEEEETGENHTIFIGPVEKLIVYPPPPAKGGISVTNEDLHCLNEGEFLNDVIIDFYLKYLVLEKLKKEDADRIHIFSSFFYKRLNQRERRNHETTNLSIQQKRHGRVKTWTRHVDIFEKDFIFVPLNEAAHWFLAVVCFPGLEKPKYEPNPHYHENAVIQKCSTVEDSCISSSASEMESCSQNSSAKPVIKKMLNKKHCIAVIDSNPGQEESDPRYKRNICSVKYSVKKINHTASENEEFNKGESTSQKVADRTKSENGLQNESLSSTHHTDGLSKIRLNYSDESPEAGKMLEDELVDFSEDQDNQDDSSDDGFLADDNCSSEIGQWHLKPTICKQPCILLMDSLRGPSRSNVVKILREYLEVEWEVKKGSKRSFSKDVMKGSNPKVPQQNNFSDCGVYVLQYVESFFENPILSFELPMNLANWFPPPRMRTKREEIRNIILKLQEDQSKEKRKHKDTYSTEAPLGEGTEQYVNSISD

Caspase-3 = target: T4, Caspase-3 (Homo sapiens, UniProt P42574); format: functional;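 further: Dose-response selectivity test against caspase-3 for candidate inhibitors of sentrin-specific proteases (SENPs)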
T4 sequence (P42574 whole entry): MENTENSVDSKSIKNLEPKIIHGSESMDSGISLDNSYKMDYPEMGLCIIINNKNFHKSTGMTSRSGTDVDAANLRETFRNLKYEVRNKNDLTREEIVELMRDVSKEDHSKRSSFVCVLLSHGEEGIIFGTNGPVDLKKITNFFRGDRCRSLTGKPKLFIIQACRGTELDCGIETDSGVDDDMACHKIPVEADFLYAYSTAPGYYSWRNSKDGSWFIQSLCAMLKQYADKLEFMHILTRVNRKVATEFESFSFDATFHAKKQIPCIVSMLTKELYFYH

[4] = Luminescence Cell-Based Dose Retest to Confirm Inhibitors of Cancer Stem Cells. [Related pubchem assays (depositor defined):AID2717, AID2721]; format: functional; settings: Homo sapiens
[5] = target: T5, Latent membrane protein 1 (Human herpesvirus 4 (strain B95-8), UniProt P03230); assay: LMP1 TES1 pathway selectivity over dsRED control – imaging, HEK293T, dual-color eGFP/dsRED, cherry-picks, selectivity assay for LMP1 NF-kB inhibitor project, dose response (AID 588398); format: functional, cell-based
T5 sequence (P03230 whole entry): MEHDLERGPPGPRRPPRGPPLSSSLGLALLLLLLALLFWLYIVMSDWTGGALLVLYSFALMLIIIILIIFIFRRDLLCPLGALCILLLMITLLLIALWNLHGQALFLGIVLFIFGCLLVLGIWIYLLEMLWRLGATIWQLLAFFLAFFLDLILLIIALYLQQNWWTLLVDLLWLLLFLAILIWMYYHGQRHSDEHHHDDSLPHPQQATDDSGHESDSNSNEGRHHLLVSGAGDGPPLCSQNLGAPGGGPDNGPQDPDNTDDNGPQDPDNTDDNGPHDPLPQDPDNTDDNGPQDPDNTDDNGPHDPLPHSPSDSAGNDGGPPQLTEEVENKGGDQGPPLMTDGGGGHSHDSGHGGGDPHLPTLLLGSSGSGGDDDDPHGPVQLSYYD

HEK293 = assay: EBV LMP1 TES2 canonical NF-kB signalling blockers – cell-based, HEK293, luciferase, cherry-pick, dose response (AID 588343); format: functional; settings: Homo sapiens
Vero = assay: mammalian cell viability reduction – secondary assay, cytotoxicity control for West Nile virus antiviral project, dose response (AID 1650); format: functional; settings: Chlorocebus sabaeus
Protein Wnt-3a = Protein Wnt-3a (Mus musculus, UniProt P27467); assay: antagonism of Wnt3a pathway luciferase reporter – Wnt-LIGHT cells, luminescence, selectivity assay for Gli-SUFU antagonist project, dose response (AID 651570); format: functional; settings: read-out: IC50_Mean;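 further: Wnt-LIGHT reporter cells stimulated with conditioned medium from Wnt3a-producing cells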
Protein Wnt-3a, sequence (P27467 whole entry): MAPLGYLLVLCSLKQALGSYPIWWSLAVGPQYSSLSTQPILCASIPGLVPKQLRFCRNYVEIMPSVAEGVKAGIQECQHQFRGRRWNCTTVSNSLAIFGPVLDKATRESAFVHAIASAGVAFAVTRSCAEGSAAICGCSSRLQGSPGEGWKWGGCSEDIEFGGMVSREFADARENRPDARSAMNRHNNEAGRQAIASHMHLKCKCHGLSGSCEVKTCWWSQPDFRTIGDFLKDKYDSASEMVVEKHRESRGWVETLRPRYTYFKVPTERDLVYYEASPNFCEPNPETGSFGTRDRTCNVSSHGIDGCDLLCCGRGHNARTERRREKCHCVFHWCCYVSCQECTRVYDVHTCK

BJ [6] = assay: BJ-TERT fibroblast viability loss – cell-based, RAS-independent, luminescence, dose response (AID 1933); format: functional; settings: Homo sapiens
[7] = reduction of Shn3 3'UTR-driven luciferase in osteoblasts – cell-based, Clone20 osteoblasts, firefly luciferase, cherry-picked, dose response (AID 624132); format: functional;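 further: firefly luciferase luminescence from reporter carrying the Shn3 3'UTR in osteoblasts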
BJ [8] = assay: cells; format: functional, cell-based; settings: Homo sapiens
[9] = alpha-synuclein stem-loop luciferase translation blockers – H4 neuroglioma cells, luminescence, confirmation (AID 1988); format: functional, cell-based
[10] = luciferase reporter signal suppression in cells – H4 neuroglioma cells, luminescence, dose response (AID 1990); format: functional, cell-based
[11] = Luminescence Cell-Based Dose Response HTS to Identify Inhibitors of 5'UTR Stem-Loop Driven Prion Protein mRNA Translation in H4 Neuroglioblastoma Cells. [Related pubchem assays: 1827 (Project Summary), 1813 (Primary HTS)]; format: functional
[12] = loss of viability in HepG2 cells – cell-based, CellTiter-Glo, cherry-picked, cytotoxicity control for Shn3 inhibitor project, dose response (AID 624134); format: functional
[13] = DRD fibroblast viability loss – cell-based, non-viral oncogenic, luminescence, dose response (AID 1934); format: functional; settings: Homo sapiens
BJ [14] = assay: BJ-TERT-LT-ST fibroblast viability loss – cell-based, RAS-independent, luminescence, dose response (AID 1935); format: functional; settings: Homo sapiens;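 further: BJ fibroblasts immortalized with TERT plus LT and ST oncogenes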
BJ [15] = assay: growth inhibition of engineered Ras-driven BJ cells – cell-based, alamar blue fluorescence, cherrypicked samples, dose response (AID 2631); format: functional; settings: Homo sapiens;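 further: confirmatory dose-response assay in RAS-dependent BJ fibroblasts engineered with TERT, LT and ST, with cytotoxicity read by fluorescence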
[16] = HEK-293T viability loss after treatment – luminescence, T-cell screen hits, cytotoxicity control for TCR NF-kB inhibitor project, dose response (AID 489026); format: functional, cell-based;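 further: cells exposed to compound about 14 hours before the viability readout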
[17] = microbe, parasite or virus in culture; format: functional; settings: Mycobacterium tuberculosis
[18] = non-specific 3'UTR reporter inhibition in Clone20-Shn3RL – cell-based, Renilla luciferase, cherry-picked, counter-screen for Shn3 inhibitor project, dose response (AID 624133); format: functional

## CC(C)NC(=O)c1ccc2c3n(nc2c1)-c1ccc(Cl)cc1CO3
[1]
  IC50: 69.3 µM (active)
HeLa
  AC50: 50.7 µM (active)
[2]
  IC50: 18.4 µM (active)
[3]
  IC50: 81.8 µM (active)
Caspase-3
  IC50: 24 µM (active)

## O=C(Nc1cc(C(F)(F)F)cc(C(F)(F)F)c1)Nc1cnn(-c2ccc([N+](=O)[O-])cc2)c1C(F)(F)F
[4]
  AC50: 0.442 µM (active)
[5]
  AC50: 3.91 µM (active)
HEK293
  AC50: 1.12 µM (active)
Vero
  CC50: 2.94 µM (active)

## Nc1ccc(Br)cc1-c1nc2ccccc2[nH]c1=O
Protein Wnt-3a
  IC50: 0.449 µM (active)

## COc1cc(C2c3cc4c(cc3C(OC3OC5COC(c6cccs6)OC5C(O)C3O)C3COC(=O)C23)OCO4)cc(OC)c1O (configuration not stated)
BJ [6]
  EC50: 6.51 µM (inconclusive)
[7]
  AC50: 1.11 µM (active)
BJ [8]
  EC50: 5.79 µM (inconclusive)
[9]
  EC50: < 0.1 µM (active)
[10]
  EC50: 5.15 µM (active)
[11]
  EC50: 15.5 µM (active)
[12]
  AC50: 14.3 µM (active)
[13]
  EC50: 8.49 µM (inconclusive)
BJ [14]
  EC50: 4.24 µM (active)
BJ [15]
  EC50: 0.428 µM (active)
[16]
  IC50: > 80 µM (inactive)
[17]
  CC50: 16.5 µM (active)
[18]
  AC50: 1.28 µM (active)

## Cc1ccc(-c2cnn(-c3cccc([N+](=O)[O-])c3)c2N)cc1
[1]
  IC50: > 100 µM (inactive)
[2]
  IC50: 8.04 µM (active)
[3]
  IC50: > 100 µM (inactive)
Caspase-3
  IC50: 23.7 µM (active)
